Each structure is given as a SMILES string. pIC50: −log10 of the molar value.

The test system of one assay is pERK in NCI-H358 cells. In words: Cell-based pERK HTRF assay (pERK inhibition in H358 cells). The following applies: Homo sapiens, NCI-H358, 0.5 h, pERK inhibition IC50, NCI-H358 cells, 30 min incubation; read-out: PERK in H358 cell.
Take `C=CC(=O)N1[C@H](C)CN(c2nc(OC[C@@]34CCCN3C[C@H](F)C4)nc3c(F)c(-c4ccc(F)c5sc(N)c(C#N)c45)c(C(F)(F)F)cc23)C[C@H]1C` [Compound 330]: the pIC50 is 6.00 to 7.00.
Same read-out and setting: then `C=CC(=O)N1CC[C@@H]2[C@H]1CN2c1nc(OCC23CCCN2CCC3)nc2c(F)c(-c3ccc(F)c4sc(N)nc34)c(Cl)cc12` [Compound 65], with 6.00 to 7.00.
Still for that read-out and setting: then `C=CC(=O)N1CC[C@@H](N(C)c2nc(OC[C@@H]3C[C@@H](F)CN3C)nc3c(F)c(-c4ccc(F)c5sc(N)nc45)c(C(F)(F)F)cc23)C1` (atropisomer, axis not shown) [Compound 231], with 6.00 to 7.00.
As to `C=CC(=O)N1C[C@H](C)N(c2nc(OC[C@@]34CCCN3C[C@H](F)C4)nc3cc(-c4ccc(F)c5sc(N)nc45)c(C(F)(F)F)cc23)C[C@H]1C` [Compound 299], the pIC50 is more than 7.00.
For the molecule `C=CC(=O)N1CCC(N(C)c2nc(OC[C@@H]3CC4(CC4)CN3C)nc3c(F)c(-c4ccc(F)c5sc(N)c(C#N)c45)c(C(F)(F)F)cc23)[C@H]1C` (stereo partly drawn) [Compound 409], the pIC50 was more than 7.00.
On to `C=CC(=O)N1CC(N(c2nc(OCC3CCCN3C)nc3c(F)c(-c4ccc(F)c5sc(N)nc45)c(Cl)cc23)C(C)C)C1` (stereo not drawn) [Compound 159], for which the pIC50 was less than 6.00.
As for `C=CC(=O)N1CC(Nc2nc(C3CCN(C)CC3)nc3c(F)c(-c4ccc(F)c5sc(N)nc45)c(Cl)cc23)C1` [Compound 60], the pIC50 is less than 6.00.
For `C=CC(=O)N1C[C@@H](F)[C@@H](N(CC)c2nc(OC[C@@]34CCCN3C[C@H](F)C4)nc3c(F)c(-c4ccc(F)c5sc(N)c(C#N)c45)c(C(F)(F)F)cc23)C1` [Compound 362], the pIC50 was more than 7.00.
In the case of `C=CC(=O)N1C[C@@H](C)[C@@H](N(C)c2nc(OC[C@@]34CCCN3C[C@H](F)C4)nc3c(F)c(-c4ccc(F)c5sc(N)nc45)c(C(F)(F)F)cc23)C1` [Compound 292], the pIC50 was 6.00 to 7.00.
As to `C=CC(=O)N1CCC(N(CC)c2nc(OC[C@@H]3CCCN3C)nc3c(F)c(-c4ccc(F)c5sc(N)c(C#N)c45)c(C(F)(F)F)cc23)[C@H]1C` (stereo partly drawn) [Compound 396], the pIC50 is more than 7.00.
`C=CC(=O)N1CCC(N(C)c2nc(OC[C@@]34CCCN3C[C@H](F)C4)nc3c(Cl)c(-c4ccc(F)c5sc(N)c(C#N)c45)c(C#N)cc23)[C@H]1C` (stereo partly drawn) [Compound 425]: the pIC50 is 6.00 to 7.00.
Still for that read-out and setting: as for `C=CC(=O)N1CC[C@H](N(C)c2nc(OC[C@@]34CCCN3C[C@H](F)C4)nc3c(F)c(-c4ccc(F)c5sc(N)c(C#N)c45)c(Cl)cc23)[C@@H]1C` (atropisomer, axis not shown) [Compound 467], the figure is more than 7.00; as for `C=CC(=O)N1CC[C@@H](N(C)c2nc(OCC3(CN4CCOCC4)CC3)nc3c(F)c(-c4ccc(F)c5sc(N)nc45)c(C(F)(F)F)cc23)C1` [Compound 287], more than 7.00; as for `C=CC(=O)N1CCC(N(C)c2nc(OC[C@@H]3CCCN3CC)nc3c(F)c(-c4ccc(F)c5sc(N)c(C#N)c45)c(C(F)(F)F)cc23)[C@H]1C` (stereo partly drawn) [Compound 451], more than 7.00.
In the case of `C=CC(=O)N1C[C@@H](F)[C@@H](N(C)c2nc(OC[C@@H]3C[C@@H](F)CN3C)nc3cc(-c4ccc(F)c5sc(N)nc45)c(C(F)(F)F)cc23)C1` [Compound 355], the pIC50 is more than 7.00.
On to `C=CC(=O)N1CCN(c2nc(OC[C@@H]3CCCN3C)nc3c(F)c(-c4ccc(F)c5sc(N)nc45)c(C(F)(F)F)cc23)CC1` [Compound 71, 1-(4-(7-(2-amino-7-fluorobenzo[d]thiazol-4-yl)-8-fluoro-2-(((S)-1-methylpyrrolidin-2-yl)methoxy)-6-(trifluoromethyl)quinazolin-4-yl)piperazin-1-yl)prop-2-en-1-one], for which the pIC50 was more than 7.00.
Take `C=CC(=O)N1CCN(c2nc(OC[C@@H]3CCCN3C)nc3c(F)c(-c4ccc(F)c5sc(N)nc45)c(Cl)cc23)CC1` [Compound 44]: the pIC50 is more than 7.00.
For `C=CC(=O)N1CC(N(C)c2nc(OCC34CCCN3CC(F)(F)C4)nc3c(F)c(-c4ccc(F)c5sc(N)nc45)c(C(F)(F)F)cc23)C1` (stereo not drawn) [Compound 187], the pIC50 was 6.00 to 7.00.
In the case of `C=CC(=O)N1CC[C@@H](N(C)c2nc(OC[C@@]34CCCN3C[C@H](F)C4)nc3c(F)c(-c4ccc(F)c5oc(N)nc45)c(C(F)(F)F)cc23)C1` [Compound 275], the pIC50 is more than 7.00.
As to `C=CC(=O)N1CCC(N(C)c2nc(OC[C@@H]3C[C@@H](F)CN3C)nc3c(F)c(-c4ccc(F)c5sc(N)c(C#N)c45)ccc23)[C@H]1COC` (stereo partly drawn) [Compound 423], the pIC50 was more than 7.00.
Consider `C=CC(=O)N1C[C@H](F)[C@@H](N(C)c2nc(OC[C@@]34CCCN3C[C@H](F)C4)nc3cc(-c4ccc(F)c5sc(N)nc45)c(C(F)(F)F)cc23)C1` [Compound 335], for which the pIC50 is more than 7.00.
Turning to `C=CC(=O)N1CC[C@@H](N(C)c2c(C#N)c(OC[C@@]34CCCN3C[C@H](F)C4)nc3c(F)c(-c4ccc(F)c5sc(N)nc45)c(Cl)cc23)C1` (atropisomer, axis not shown) [Compound 234], the pIC50 was less than 6.00.
`C=CC(=O)N1CCC(N(C)c2nc(OC[C@@]34CCCN3C[C@H](F)C4)nc3c(F)c(-c4ccc(F)c5sc(N)c(C#N)c45)ccc23)[C@H]1COC` (stereo partly drawn) [Compound 402]: the pIC50 was more than 7.00.
On to `C=CC(=O)N1CCC(N(CC)c2nc(OC[C@@H]3C[C@@H](OC)CN3C)nc3c(F)c(-c4ccc(F)c5sc(N)c(C#N)c45)c(C(F)(F)F)cc23)[C@H]1COC` (stereo partly drawn) [Compound 427], for which the pIC50 was more than 7.00.
Regarding `C=CC(=O)N1CC[C@@H](N(CC)c2nc(OC[C@@]34CCCN3C[C@H](F)C4)nc3cc(-c4ccc(F)c5sc(N)c(C#N)c45)c(F)cc23)[C@H]1C` [Compound 414], the pIC50 was more than 7.00.
Consider `C=CC(=O)N1CCC(N(CC)c2nc(OC[C@@]34CCCN3C[C@H](F)C4)nc3c(F)c(-c4ccc(F)c5sc(N)c(C#N)c45)ccc23)[C@H]1C` (stereo partly drawn) [Compound 421], for which the pIC50 is more than 7.00.
For `C=CC(=O)N1CC[C@@H](N(C)c2nc(OC[C@@]34CCCN3C[C@H](F)C4)nc3c(F)c(-c4ccc(F)c5sc(N)c(C#N)c45)c(F)cc23)C1` [Compound 343], the pIC50 is more than 7.00.
For the molecule `C=CC(=O)N1C[C@H](C)N(c2nc(OCC3(CN4CCOCC4)CC3)nc3c(F)c(-c4ccc(F)c5sc(N)nc45)c(C(F)(F)F)cc23)C[C@H]1C` [Compound 285], the pIC50 is more than 7.00.
As to `C=CC(=O)N1CCC(N(C)c2nc(OC[C@@H]3C[C@@H](OC)CN3C)nc3cc(-c4ccc(F)c5sc(N)c(C#N)c45)c(C#N)cc23)[C@H]1COC` (stereo partly drawn) [Compound 465], the pIC50 is 6.00 to 7.00.
Consider `C=CC(=O)N1CC[C@@H](N(CC)c2nc(OC[C@@]34CCCN3C[C@H](F)C4)nc3cc(-c4ccc(F)c5sc(N)c(C#N)c45)c(C(F)(F)F)cc23)C1` [Compound 352], for which the pIC50 is more than 7.00.
In the case of `C=CC(=O)N1CC[C@@H](N(C)c2nc(OC[C@@H]3CC4(CC4)CN3C)nc3c(F)c(-c4ccc(F)c5sc(N)nc45)c(C(F)(F)F)cc23)C1` (atropisomer, axis not shown) [Compound 255], the pIC50 was more than 7.00.
As to `C=CC(=O)N1CCC(N(C)c2nc(OC[C@@]34CCCN3C[C@H](OC)C4)nc3c(F)c(-c4ccc(F)c5sc(N)c(C#N)c45)c(Cl)cc23)[C@H]1C` (stereo partly drawn) [Compound 474], the pIC50 was more than 7.00.
Turning to `C=CC(=O)N1CCN(c2nc(OC[C@@]34CCCN3C[C@H](F)C4)nc3c(F)c(-c4ccc(F)c5sc(N)c(C#N)c45)c(C(F)(F)F)cc23)CC12CC2` [Compound 322], the pIC50 was more than 7.00.
Take `C=CC(=O)N1CCN(c2nc(OC[C@@H]3CCCN3CCF)nc3c(F)c(-c4ccc(F)c5sc(N)nc45)c(C(F)(F)F)cc23)CC1` [Compound 153]: the pIC50 is more than 7.00.
For `C=CC(=O)N1C[C@H](C)N(c2nc(OC[C@@]34CCCN3C[C@H](F)C4)nc3c(Cl)c(-c4ccc(F)c5sc(N)nc45)c(C(F)(F)F)cc23)C[C@H]1C` [Compound 295, 1-((2R,5S)-4-(7-(2-amino-7-fluorobenzo[d]thiazol-4-yl)-8-chloro-2-(((2R,7aS)-2-fluorotetrahydro-1H-pyrrolizin-7a(5H)-yl)methoxy)-6-(trifluoromethyl)quinazolin-4-yl)-2,5-dimethylpiperazin-1-yl)prop-2-en-1-one], the pIC50 was more than 7.00.
As to `C=CC(=O)N1CC[C@@H](N(CC)c2nc(OCC34CCCN3CCC4)nc3c(F)c(-c4ccc(F)c5sc(N)nc45)c(C(F)(F)F)cc23)C1` [Compound 249], the pIC50 was 6.00 to 7.00.
With `C=CC(=O)N1CC[C@@H](N(C)c2nc(OC[C@@]34CCCN3C[C@H](F)C4)nc3c(F)c(-c4ccc(F)c5sc(N)c(C#N)c45)c(Cl)cc23)C1` [Compound 342], the pIC50 was more than 7.00.

Staying with this assay, now noted: Homo sapiens, NCI-H358, 0.5 h, read-out: PERK in H358 cell.
With `CN1CCC[C@H]1COc1nc(NC2CN(C#N)C2)c2cc(Cl)c(-c3ccc(F)c4sc(N)nc34)c(F)c2n1` [Compound 40, 3-((7-(2-amino-7-fluorobenzo[d]thiazol-4-yl)-6-chloro-8-fluoro-2-(((S)-1-methylpyrrolidin-2-yl)methoxy)quinazolin-4-yl)amino)azetidine-1-carbonitrile], the pIC50 is 6.00 to 7.00.

The assay is the same for the next values; noted with them: pERK inhibition IC50, NCI-H358 cells, 30 min incubation; read-out: PERK in H358 cell.
`C=CC(=O)N1CC[C@@H](N(C)c2nc(OC[C@@H]3CC(F)(F)CN3C)nc3c(F)c(-c4ccc(F)c5sc(N)nc45)c(C(F)(F)F)cc23)C1` (atropisomer, axis not shown) [Compound 228]: the pIC50 is more than 7.00.
Consider `C=CC(=O)N1CC[C@@H](N(C)c2nc(OC[C@@]34CCCN3C[C@H](F)C4)nc3c(Cl)c(-c4ccc(F)c5sc(N)nc45)c(C(F)(F)F)cc23)C1` (single isomer, unassigned) [Compound 303], for which the pIC50 was 6.00 to 7.00.
Take `C=CC(=O)N1CC[C@@H](N(C)c2nc(OCC34CCCN3CCC4)nc3c(F)c(-c4ccc(F)c5sc(N)nc45)c(C(F)(F)F)cc23)C1` (atropisomer, axis not shown) [Compound 222]: the pIC50 is 6.00 to 7.00.
As to `C=CC(=O)N1CC[C@H](N(C)c2nc(OC[C@@]34CCCN3C[C@H](F)C4)nc3c(F)c(-c4ccc(F)c5sc(N)c(C#N)c45)c(C(F)(F)F)cc23)[C@@H]1C` (single isomer, unassigned) [Compound 473], the pIC50 is more than 7.00.
